Columns and labels:
[1] = test system: Japanese and US subjects; conditions: single-dose (0.03, 0.1, 0.3, 1.0, 2.5, 5.0 mg) escalation, ref earlier single-dose studies quoted in protocol; cited from earlier work
[2] = test system: mice; conditions: cited from earlier work
Protocol: (§1) Mazdutide (also known as IBI362 or LY3305677) is a once-weekly mammalian oxyntomodulin analogue. […] In a phase 1b clinical trial in Chinese adults with overweight or obesity, mazdutide dosed up to 6 mg achieved 12-week mean body weight loss up to 6.4%.[11] Given the favourable safety profile and the robust body weight loss achieved in the low-dose cohort ...

[3] = test system: human GLP-1 receptors; conditions: in vitro; cited from earlier work
Protocol: as §1

[4] = test system: mouse glucagon receptors; conditions: in vitro; cited from earlier work
Protocol: as §1

[5] = test system: mouse GLP-1 receptors; conditions: in vitro; cited from earlier work
Protocol: as §1

[6] = test system: human glucagon receptors; conditions: in vitro; cited from earlier work
Protocol: as §1

[7] = test system: Chinese adults with overweight or obesity; experiment: Change from baseline in body weight, BMI and waist circumference (MMRM), phase 1b trial; format: in vivo, human; conditions: for Participants who achieved 10% body weight loss or more / Participants who achieved 15% body weight loss or more: during the study; for Participants who achieved 10% body weight loss or more / Participants who achieved 15% body weight loss or more / CFB in BMI / CFB in body weight / CFB in waist circumference / Percent CFB in body weight: n = 8
Protocol: Secondary outcomes included pharmacokinetics, assessed by maximum observed plasma concentration (Cmax), time at which Cmax was observed (Tmax), terminal elimination half-life (t½), and area under the curve from time zero to 168 h after the first dose (AUC0–168 h) and immunogenicity, assessed by titters of anti-drug antibodies (ADAs) and neutralizing antibodies. Secondary efficacy outcomes included the change from baseline to week 12 (9 mg cohort) or week 16 (10 mg cohort) in body weight, waist circumference, BMI, as well as the change from baseline in HbA1c, lipids, transaminase and serum uric acid levels.
The sample size of 12 participants per cohort was empirically determined to provide preliminary safety, tolerability, pharmacokinetics data while minimizing the number of participants. No formal hypothesis testing was planned. Participants receiving placebo were pooled for analysis on the change from baseline in body weight, waist circumference and BMI.
The analyses for the change from baseline in body weight, waist circumference and BMI were performed using mixed-effect model for repeated measures (MMRM), with least squares mean change or mean percent change from baseline at each follow-up time analysed using a restricted maximum likelihood (REML)‐based repeated measures approach in combination with the Newton Raphson Algorithm. The MMRM included the corresponding baseline value, treatment, visit and treatment-by-visit as fixed effects and patient as a random effect, with an unstructured covariance matrix used. In case of non-converge, matrix like Variance Components and Compound Symmetry will be tested in a subsequent order until model‐convergence is achieved. The Kenward-Roger degree of freedom was used in estimating fixed effects. No missing data imputation was conducted. Point estimate of treatment difference versus placebo at week 12 for the 9 mg cohort and at week 16 for the 10 mg cohort were provided, together with corresponding 95% CI and nominal p value.

[8] = test system: Chinese adults with overweight or obesity; experiment: Vital signs and laboratory safety (heart rate, blood pressure, lipase, transaminases), phase 1b trial; format: in vivo, human; conditions: for Mean change from baseline in heart rate (maximum): placebo 4.3
From the text: The primary outcomes were safety and tolerability of mazdutide.
Summaries for other efficacy and safety variables included descriptive statistics for continuous measures (mean and standard deviation or standard error) and for categorical measures (sample size, frequency and percentages).

[9] = 9 mg cohort, week 12, LS mean (SE), MMRM
[10] = 9 mg cohort, week 12, estimate (95% CI), MMRM
[11] = 10 mg cohort, week 16, LS mean (SE), MMRM
[12] = 10 mg cohort, week 16, estimate (95% CI), MMRM

## CC(C)C[C@H](NC(=O)[C@H](CC(C)C)NC(=O)[C@H](Cc1c[nH]c2ccccc12)NC(=O)[C@H](CCC(=O)O)NC(=O)[C@@H](NC(=O)[C@H](Cc1ccccc1)NC(=O)[C@H](CCC(=O)O)NC(=O)[C@H](CCCCNC(=O)COCCOCCNC(=O)COCCOCCNC(=O)CC[C@H](NC(=O)CCCCCCCCCCCCCCCCCCC(=O)O)C(=O)O)NC(=O)[C@H](C)NC(=O)[C@H](CCCCN)NC(=O)[C@H](CCCCN)NC(=O)[C@H](CCC(=O)O)NC(=O)[C@H](CC(=O)O)NC(=O)[C@H](CC(C)C)NC(=O)[C@H](Cc1ccc(O)cc1)NC(=O)[C@H](CCCCN)NC(=O)[C@H](CO)NC(=O)[C@H](Cc1ccc(O)cc1)NC(=O)[C@H](CC(=O)O)NC(=O)[C@H](CO)NC(=O)[C@@H](NC(=O)[C@H](Cc1ccccc1)NC(=O)[C@@H](NC(=O)CNC(=O)[C@H](CCC(N)=O)NC(=O)C(C)(C)NC(=O)[C@@H](N)Cc1c[nH]cn1)[C@@H](C)O)[C@@H](C)O)C(C)C)C(=O)N[C@@H](CCC(=O)O)C(=O)NCC(=O)NCC(=O)N1CCC[C@H]1C(=O)N[C@@H](CO)C(=O)N[C@@H](CO)C(=O)NCC(N)=O [Mazdutide]
[1]
  maximum tolerated dose (MTD) of single-dose study: 2.5 mg
[2]; both Gcgr knockout (KO) and Glp1r KO settings
  Body weight: decreased body weight
[2]
  Energy expenditure: increased energy expenditure
  Glucose control: improved glucose control
[3]
  Binding to human GLP-1 receptors: potently bound
[4]
  Binding to mouse glucagon receptors: potently bound
[5]
  Binding to mouse GLP-1 receptors: potently bound
[6]
  Binding to human glucagon receptors: potently bound
[7]; 9 mg cohort
  Participants who achieved 10% body weight loss or more: 50%
  Participants who achieved 15% body weight loss or more: 25%
[7]; [9]
  CFB in BMI: −3.51 (0.46) kg/m^2
  CFB in body weight: −9.23 (1.2) kg
  CFB in waist circumference: −5.79 (1.45) cm
  Percent CFB in body weight: −11.7 (1.5) %
[7]; [10]
  CFB in BMI, ETD versus pooled placebo: −2.96 (−4.37, −1.54) kg/m^2
  CFB in body weight, ETD versus pooled placebo: −7.65 (−11.32, −3.98) kg
  CFB in waist circumference, ETD versus pooled placebo: −5.15 (−9.63, −0.67) cm
  Percent CFB in body weight, ETD versus pooled placebo: −9.8 (−14.4, −5.3) %
[7]; 10 mg cohort
  Participants who achieved 10% body weight loss or more: 50%
  Participants who achieved 15% body weight loss or more: 25%
[7]; [11]
  CFB in BMI: −2.96 (0.56) kg/m^2
  CFB in body weight: −7.62 (1.39) kg
  CFB in waist circumference: −3.36 (1.59) cm
  Percent CFB in body weight: −9.5 (1.7) %
[7]; [12]
  CFB in BMI, ETD versus placebo: −1.89 (−3.63, −0.15) kg/m^2
  CFB in body weight, ETD versus placebo: −4.76 (−9.10, −0.43) kg
  CFB in waist circumference, ETD versus placebo: −1.18 (−7.65, 5.29) cm
  Percent CFB in body weight, ETD versus placebo: −6.2 (−11.5, −0.9) %
[8]; 9 mg cohort
  Mean change from baseline in heart rate (maximum): up to 17.4 beats per minute
[8]; 10 mg cohort, 153 U/L at baseline, upper limit of normal 300 U/L, returned to normal at safety follow-up
  Lipase level in one participant at week 16: 739 U/L
[8]; 10 mg cohort
  Mean change from baseline in heart rate (maximum): ≤ 11.6 beats per minute
[8]; one participant in 9 mg cohort, one in 10 mg cohort
  Transaminase elevation in the two participants with ALT/AST increased: mild (within three times upper limit of normal) and transient
